According to patent publication US20180251425A1, “2,3,5 TRISUBSTITUTED PYRROLE DERIVATIVES AS TOPOISOMERASE INHIBITORS AND THERAPEUTIC USES THEREOF” (UNIVERSITY OF MYSORE, priority 2015, published 2018):

How the values were obtained:
[1] = tested on: HeLa; assay: Cytotoxicity in HeLa cells; format: cell-based; settings: Homo sapiens, read-out: Cytotoxicity IC 50 in μM (Cell lines) HeLa
Protocol: Human cancer cell lines, K562, MCF7, HeLa and HEK 293T were purchased from National Centre for Cell Science, Pune, India. Cells were grown in RPMI 1640/MEM/DMEM supplemented with 10% heat-inactivated fetal bovine serum (FBS), 100 U/mL of Penicillin, and 100 μg of streptomycin/mL and incubated at 37° C. in a humidified atmosphere containing 5% CO2.
Cytotoxic effect of the newly synthesized compounds against leukemic cells was assessed using 3-(4, 5-dimethyl-2-yl02, 5-diphenyl tetrazolium bromide (MTT) assay. After exposure of compound at different concentration (0.01, 0.1, 0.5, 1, 10, 50 and 100 μM) cells were harvested and transferred into 96 well plate, MTT (5 mg/ml) was added and incubate at 37° C. for 4 h and formazan crystals were dissolved by adding solubilizing agent (10% SDS and 50% dimethyl formamide) for 1 h, finally plate was read at 570 nm (Bio-Rad, USA). Results were represented as inhibition of percentage of cell proliferation in bar diagram (n=3) (FIGS. 1 A, C, E and G). […]

[2] = tested on: Molt4 cells; assay: Cell cycle analysis (propidium iodide, flow cytometry); format: cell-based, Human; settings: Molt4 cells, 0.01, 0.1, 0.25 and 0.5 μM, concentration dependent
Protocol: The DNA content analysis was performed by using Flow cytometer, Molt4 cells seeded (0.5×10^5 cells/ml) in 6 well plate and treated with different concentrations of ASR6 (0.01, 0.1, 0.25 and 0.5 μM) at 37° C. for 48 h. After incubation cells were harvested, processed and fixed in 80% chilled ethanol. Overnight treated with RNase-A (50 μg/ml) incubated at 37° C. Further cells stained with propidium iodide (5 μg/ml) and cell cycle progression was monitored using flow cytometer (FACSVerse™ BD Biosciences, USA). A minimum of 10000 cells were recorded. Results were analyzed using Flowing Software (Version 2.5) and plotted histograms.
In FIG. 2 A, B histograms representing different phases of cell cycle distribution of ASR6 (0.01, 0.1, 0.25 and 0.5 μM for 24 h and 48 h) treated Molt4 cells is shown.

[3] = molecular target: T1, recombinant human DNA topoisomerase I (Homo sapiens, UniProt P11387); assay: Topoisomerase I DNA relaxation assay; format: biochemical; settings: 0, 10, 25, 50 and 100 μM, supercoiled pBS-SK+ plasmid, 37° C. 30 min
T1 construct: purchased TopoGEN; Inc
T1 sequence (P11387 1-765): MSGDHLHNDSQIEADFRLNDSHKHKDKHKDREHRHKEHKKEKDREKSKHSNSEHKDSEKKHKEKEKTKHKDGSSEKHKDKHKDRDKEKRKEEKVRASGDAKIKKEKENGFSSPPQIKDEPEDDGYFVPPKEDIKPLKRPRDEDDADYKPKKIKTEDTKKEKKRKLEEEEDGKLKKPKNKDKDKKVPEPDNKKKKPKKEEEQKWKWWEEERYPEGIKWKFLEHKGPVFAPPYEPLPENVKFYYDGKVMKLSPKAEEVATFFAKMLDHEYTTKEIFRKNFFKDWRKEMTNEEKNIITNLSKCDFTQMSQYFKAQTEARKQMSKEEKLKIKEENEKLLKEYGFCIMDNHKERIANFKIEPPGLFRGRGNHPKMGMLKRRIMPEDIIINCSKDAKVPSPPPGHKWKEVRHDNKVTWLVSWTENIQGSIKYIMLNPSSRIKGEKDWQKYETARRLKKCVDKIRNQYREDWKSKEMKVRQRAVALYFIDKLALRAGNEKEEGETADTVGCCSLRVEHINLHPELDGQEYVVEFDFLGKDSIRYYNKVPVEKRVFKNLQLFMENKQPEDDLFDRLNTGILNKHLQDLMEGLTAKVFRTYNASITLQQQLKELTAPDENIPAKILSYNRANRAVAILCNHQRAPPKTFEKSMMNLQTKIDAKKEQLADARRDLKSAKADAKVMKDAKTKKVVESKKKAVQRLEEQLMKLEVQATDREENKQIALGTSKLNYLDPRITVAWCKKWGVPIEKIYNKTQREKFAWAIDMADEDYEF
Protocol: In order to determine the ability of ASR6 of topoisomerase I activity assay was performed, in a reaction mixture containing supercoiled plasmid DNA (pBS-SK+) was isolated using Gen Elute plasmid miniprep kit (Sigma Aldrich), according to manual instructions. ˜200 ng plasmid and two units of recombinant human DNA topoisomerase I (TopoGEN. Inc) along with the different concentrations of ASR6 (0, 10, 25, 50 and 100 μM) was added at RT for 5 min; equal amount of DMSO was used as vehicle control. Reaction was carried out at 37° C. for 30 min in a relaxation buffer 1× topoI buffer (50 mM Tris-HCl (pH 8.0), 10 mM NaCl, 10 mM MgCl2, 5 mM ATP, 0.5 mM dithiothreitol and 30 μg BSA/ml) and reactions were terminated by adding 5× stop buffer containing 5% sarkosyl, 0.0025% bromophenol blue, 25% glycerol. The DNA samples were electrophoresed on 1% agarose gel at 45 volts for 4 h with 0.5×TBE (Tris-borate-EDTA). The gels were stained for 30 min in milli Q water containing ethidium bromide (0.5 mg/ml) followed by distaining for 30 min in milli Q water and images were taken (FIG. 5). […] Topotecan (Topo I inhibitor) was used as positive control for topoisomerase I.

CCOC(=O)c1[nH]c(-c2ccc(Cl)cc2)cc1-c1cccnc1 [ASR6, Ethyl 5-(4-chlorophenyl)-3-(pyridin-3-yl)-1H-pyrrole-2-carboxylate]
IC50 [1]: 0.749 µM | Cell cycle progression at 24 h ([2]; 24 h): G2/M arrest | Cell cycle progression at 48 h ([2]; 48 h): SubG1 phase (apoptosis) | Inhibition of topoisomerase I activity (DNA relaxation) [3]: does not inhibit topoisomerase I activity
